Calls of active or inactive are those of the source.
Assays:
Cytochrome P450 3A4 [1] = molecular target: T1, Cytochrome P450 3A4 (Homo sapiens, UniProt P08684);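 note: CYP3A4 tested as one member of a cytochrome P450 panel screen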
Cytochrome P450 2C19 = Cytochrome P450 2C19 (Homo sapiens, UniProt P33261); experiment: Cytochrome panel assay with activity outcomes. Panel member name: p450-cyp2c19 Compounds with AC50 equal or less than 10 uM are considered active; type: functional
Cytochrome P450 2C9 [2] = molecular target: T2, Cytochrome P450 2C9 (Homo sapiens, UniProt P11712)
T2 sequence (P11712 whole entry): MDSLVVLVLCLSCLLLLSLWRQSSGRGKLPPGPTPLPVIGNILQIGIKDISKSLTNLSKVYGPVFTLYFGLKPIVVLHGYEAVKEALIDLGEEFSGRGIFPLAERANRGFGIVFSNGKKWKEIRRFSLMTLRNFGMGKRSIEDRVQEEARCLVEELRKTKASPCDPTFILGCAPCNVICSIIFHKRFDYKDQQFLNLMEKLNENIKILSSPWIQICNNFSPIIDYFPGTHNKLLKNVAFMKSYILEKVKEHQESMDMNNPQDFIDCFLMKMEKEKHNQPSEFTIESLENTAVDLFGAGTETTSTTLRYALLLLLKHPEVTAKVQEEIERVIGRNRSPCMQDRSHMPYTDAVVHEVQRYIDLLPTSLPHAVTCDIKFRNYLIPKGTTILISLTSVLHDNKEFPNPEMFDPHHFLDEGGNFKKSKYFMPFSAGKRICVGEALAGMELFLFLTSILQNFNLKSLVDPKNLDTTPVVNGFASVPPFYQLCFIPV

Cytochrome P450 3A4 [3] = molecular target: T1, Cytochrome P450 3A4; remark: listed apart in the source
[4] = molecular target: Eukaryotic translation initiation factor 4E (Mus musculus, UniProt P63073); experiment: blockers of eIF4G binding by eIF4E – biochemical, TR-FRET, dose response (AID 855); type: functional;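 note: potency for disrupting eIF4E binding to eIF4GI seen as loss of FRET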
Sequence of Eukaryotic translation initiation factor 4E (P63073 whole entry): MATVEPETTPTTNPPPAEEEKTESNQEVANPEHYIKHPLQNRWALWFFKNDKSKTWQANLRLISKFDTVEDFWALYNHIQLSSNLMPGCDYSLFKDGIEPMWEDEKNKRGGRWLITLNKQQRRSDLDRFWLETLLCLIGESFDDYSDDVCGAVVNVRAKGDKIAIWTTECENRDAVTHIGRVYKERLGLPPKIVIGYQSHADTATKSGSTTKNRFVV

Streptococcus = experiment: GAS UMAA2166 growth inhibition – luminescence, BacTiterGlo, counter-screen for streptokinase expression inhibitor project, dose response (AID 1915); type: functional, organism-based;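 note: potency for reduction of bacterial viability or growth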
Vero [5] = experiment: cells; type: functional; conditions: Chlorocebus sabaeus
Vero [6] = experiment: cells; type: functional, cell-based; conditions: Chlorocebus sabaeus
[7] = system: Streptococcus sp. 'group A'; experiment: Streptococcus pyogenes SK(-)GAS viability under kanamycin – luminescence, BacTiterGlo, confirmation, counter-screen for streptokinase expression inhibitor project, dose response (AID 1900); type: functional, organism-based
HeLa = experiment: ATP-based viability loss in HeLa cells – cell-based, CellTiter-Glo luminescence, cherry-pick samples, cytotoxicity control for MITF activator project, dose response (AID 540259); type: functional; conditions: Homo sapiens
[8] = molecular target: T3, Tyrosine-protein phosphatase non-receptor type 7 (Homo sapiens, UniProt P35236); experiment: HePTP tyrosine phosphatase activity blockers – biochemical, absorbance, leukemia target, primary screen (AID 521); type: functional
T3 sequence (P35236 whole entry): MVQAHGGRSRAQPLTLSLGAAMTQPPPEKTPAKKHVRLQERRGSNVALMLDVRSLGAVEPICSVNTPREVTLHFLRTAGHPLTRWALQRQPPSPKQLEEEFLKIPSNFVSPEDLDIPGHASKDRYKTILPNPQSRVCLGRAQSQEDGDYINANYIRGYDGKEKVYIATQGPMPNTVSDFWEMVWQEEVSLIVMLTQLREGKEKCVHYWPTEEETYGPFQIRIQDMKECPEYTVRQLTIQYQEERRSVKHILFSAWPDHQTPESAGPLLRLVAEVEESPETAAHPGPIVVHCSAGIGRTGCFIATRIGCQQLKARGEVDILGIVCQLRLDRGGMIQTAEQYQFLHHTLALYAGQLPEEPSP

Cytochrome P450 2C9 [9] = molecular target: T2, Cytochrome P450 2C9; remark: listed apart in the source
cells = type: functional

Sequence of Cytochrome P450 2C19 (P33261 whole entry): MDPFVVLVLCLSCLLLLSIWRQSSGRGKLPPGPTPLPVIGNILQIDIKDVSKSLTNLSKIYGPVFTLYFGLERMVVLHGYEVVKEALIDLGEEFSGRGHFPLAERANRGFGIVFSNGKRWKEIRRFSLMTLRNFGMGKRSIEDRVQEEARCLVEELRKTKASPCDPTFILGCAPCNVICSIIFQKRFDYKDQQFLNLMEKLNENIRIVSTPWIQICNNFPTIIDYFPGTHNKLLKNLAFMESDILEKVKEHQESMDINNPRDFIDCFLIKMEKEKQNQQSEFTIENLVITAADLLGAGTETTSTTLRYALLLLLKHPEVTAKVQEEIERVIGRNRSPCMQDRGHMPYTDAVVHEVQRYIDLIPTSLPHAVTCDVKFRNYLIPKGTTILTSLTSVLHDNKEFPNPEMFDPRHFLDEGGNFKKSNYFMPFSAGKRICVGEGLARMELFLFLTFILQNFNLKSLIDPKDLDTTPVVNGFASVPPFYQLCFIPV
T1 sequence (P08684 whole entry): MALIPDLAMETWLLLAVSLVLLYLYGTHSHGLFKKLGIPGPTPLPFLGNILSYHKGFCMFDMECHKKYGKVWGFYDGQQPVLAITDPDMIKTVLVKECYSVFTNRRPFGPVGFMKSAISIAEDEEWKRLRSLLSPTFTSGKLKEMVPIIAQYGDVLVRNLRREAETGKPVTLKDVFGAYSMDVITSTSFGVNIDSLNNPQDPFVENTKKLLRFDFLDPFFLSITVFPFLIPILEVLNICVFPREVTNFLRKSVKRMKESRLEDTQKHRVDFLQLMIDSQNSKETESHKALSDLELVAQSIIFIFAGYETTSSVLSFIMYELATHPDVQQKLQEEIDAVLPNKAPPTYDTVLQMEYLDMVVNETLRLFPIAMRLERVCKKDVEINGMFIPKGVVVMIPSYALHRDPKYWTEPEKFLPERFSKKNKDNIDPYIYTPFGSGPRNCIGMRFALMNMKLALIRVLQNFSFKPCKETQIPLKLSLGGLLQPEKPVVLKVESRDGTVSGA

**Q.** Which results are given for `CC(C)(C)c1ccc(OCC(=O)NNC(=O)CCc2ccccc2)cc1`?
**A.** AC50 (Cytochrome P450 3A4 [1]): inconclusive; AC50 (Cytochrome P450 2C19): 14.1 µM (inconclusive); AC50 (Cytochrome P450 2C9 [2]): inconclusive

**Q.** Which results are given for `CCC1Oc2ccccc2N(CC(=O)NCCCN2CCCCC2C)C1=O` (stereo not given)?
**A.** AC50 (Cytochrome P450 3A4 [3]): 20 µM (inconclusive); AC50 (Cytochrome P450 2C19): 2.24 µM (inconclusive); AC50 (Cytochrome P450 2C9 [2]): inconclusive

**Q.** Which IC50 [4] does the source give for `COC(=O)n1c(=S)oc2cc(Cl)ccc21` here?
**A.** Its IC50 is > 64 µM (inactive).

**Q.** Which EC50 (Streptococcus) does the source give for `COc1ccc(CC(=O)NC(=S)NNC(=O)COc2c(C)cccc2C)cc1` here?
**A.** The EC50 was 6.88 µM (active).

**Q.** What about the CC50 (Vero [5]) of the same compound?
**A.** The CC50 was > 25 µM (active).

**Q.** And the IC50 (Vero [6])?
**A.** Its IC50 is 11.4 µM (active).

**Q.** And the EC50 [7]?
**A.** The EC50 was 0.124 µM (active).

**Q.** For `Cc1cc2ncc(-c3ccc(Cl)cc3)c(N)n2n1`, which AC50 (HeLa) is on record?
**A.** The AC50 was 68.3 µM (active).

**Q.** With `COc1ccc2c3ncn(CC4CCCO4)c(O)c-3nc2c1` (stereo not given) as the compound, how does the IC50 [8] read?
**A.** The IC50 was > 100 µM (not active).

**Q.** Which results are given for `COc1ccc(/C=N/n2cnc3c4cc(Br)ccc4nc-3c2O)cc1CN1CCOCC1`?
**A.** AC50 (Cytochrome P450 2C9 [9]): 3.55 µM (inconclusive); IC50 [4]: > 64 µM (inactive)

**Q.** Which AC50 (Cytochrome P450 2C9 [2]) does the source give for `CC(O)(CS(=O)(=O)c1cccc(C(F)(F)F)c1)C(=O)Nc1cccc(C(F)(F)F)c1` (stereo not given) here?
**A.** Its AC50 is “inconclusive”.

**Q.** With `CCC(C)[C@H](NC(=O)NCC1CCCO1)C(=O)OC` (stereo not given in full) as the compound, how does the IC50 [8] read?
**A.** The IC50 was > 100 µM (not active).

**Q.** Which IC50 [8] does the source give for `Cc1ccc(-n2c(Cc3cccn3C)nnc2SCC(=O)NCc2ccco2)cc1` here?
**A.** The IC50 was > 100 µM (not active).

**Q.** Which results are given for `CCOc1cccc2cc(C(=O)Nc3nccs3)c(=O)oc12`?
**A.** IC50 [8]: > 100 µM (not active); IC50 (cells): 1.31 µM (active)

From ChEMBL document CHEMBL1201862, “PubChem BioAssay data set” (2004)
